# Measured values reported in US20090023784A1, “USE OF DEFERIPRONE AND METHODS TO TREAT AND/OR PREVENT FRIEDREICH ATAXIA RESULTING FROM INTRACELLULAR MISHANDLING OF IRON” (priority 2006, published 2009).
# Tests used:
# iron-loaded rats = test: Tissue iron content (ICP-MS) in iron-loaded rats treated with deferiprone; format: in vivo; conditions: 100 mg/kg daily oral gavage
# Experimental: As part of a larger study comparing iron chelators, we conducted histologic examination and electron microscopy (EM) of tissues following iron loading (100 mg/kg iron dose intraperitoneally twice weekly for four weeks) in rats (200-250 g) and treatment with deferiprone. Two control groups of rats were studied, one with no iron loading (“Naïve”) and the other with iron loading but no iron chelation.
# Deferiprone was administered five times weekly (daily Monday to Friday). The animals received 89 doses in 127 days of 100 mg/kg daily, by oral gavage.
# Iron content in micrograms per gram dry tissue±SD as determined by ICP-MS
# [1] = Serum deferiprone time-concentration profile (HPLC) in the 52-week monkey study; format: in vivo, cynomolgus monkeys; conditions: 75 mg/kg twice daily
# Experimental: Groups of 4 male and 4 female monkeys (2 to 3 years old) were dosed by nasogastric intubation at (0.5% w/v aqueous carboxymethylcellulose vehicle) 75 mg/kg deferiprone twice daily (bid), with 6-8 hours between doses, for at least 364 days.
# Clinical signs, body weights and food intake were assessed at frequent intervals. Ophthalmological and cardiovascular examinations were carried out in Weeks 17, 30, 43, 56 and 60. Hematology, coagulation, clinical chemistry and urine parameters were measured at baseline and in Weeks 8, 16, 30, 41, 56 and 60. Blood samples were taken on the first day of dosing, and in Weeks 17 and 56 for assessment of the serum deferiprone time-concentration profile. A full necropsy was performed on each animal, selected organs weighed, and histopathological examination of abnormalities and selected tissues conducted.
# [2] = system: intracellular iron pools of macrophages, hepatocytes, and cardiomyocyte cell lines; conditions: living cells, fluorescence probes; cited from earlier work
compound,measurement,setting,value
"Cc1c(O)c(=O)ccn1C [Deferiprone, 3-hydroxy-1,2-dimethylpyridin-4-one]","Iron content, Skeletal Muscle","iron-loaded rats; 89 doses in 127 days, ±SD, Fe-control 205 ± 109, Naive 50 ± 17",146 ± 49 micrograms per gram dry tissue
same,"Iron content, Thyroid","iron-loaded rats; 89 doses in 127 days, ±SD, Fe-control 583 ± 275, Naive 95 ± 13",425 ± 228 micrograms per gram dry tissue
same,"Iron content, Kidney","iron-loaded rats; 89 doses in 127 days, ±SD, Fe-control 801 ± 39, Naive 305 ± 80",642 ± 104 micrograms per gram dry tissue
same,"Iron content, Heart","iron-loaded rats; 89 doses in 127 days, ±SD, Fe-control 1,088 ± 36, Naive 276 ± 25",586 ± 143 micrograms per gram dry tissue
same,"Iron content, Lung","iron-loaded rats; 89 doses in 127 days, ±SD, Fe-control 1,234 ± 227, Naive 376 ± 45",1065 ± 101 micrograms per gram dry tissue
same,"Iron content, Liver","iron-loaded rats; 89 doses in 127 days, ±SD, Fe-control 11,534 ± 554, Naive 376 ± 127","7,780 ± 1,637 micrograms per gram dry tissue"
same,effect on iron levels in organs,iron-loaded rats; iron-loaded rats,decreased the iron levels in the liver and heart and most other organs
same,peak concentration relative to thalassemia patients treated with 25 mg/kg three times daily,[1],about three times
same,deferiprone detectable in serum for up to,[1]; HPLC,up to 7 h
same,deferiprone detectable in serum from (time after dosing),[1]; HPLC,≥ 0.5 h
same,half-life,"[1]; both sexes, cynomolgus monkey, serum, oral, range in individuals",0.35 to 2.39 h
same,access to intracellular iron pools / chelation,[2],readily enter most cells and efficiently reach the major intracellular sites of iron accumulation
